Reference: patent publication US20260049092A1, “ANTIBACTERIAL COMPOUNDS” (Blacksmith Medicines, Inc., priority 2022, published 2026)
Converted amounts (≈) assume the structure as drawn. Where two headings read alike, the source gives them in different places.

Columns and labels:
Experiment in all cases: Bacterial susceptibility testing (MIC, broth microdilution)
Type in all cases: cell-based
P. aeruginosa PAO1 = settings: Pseudomonas aeruginosa
Protocol: (§1) Minimal inhibitory concentrations (MIC) were determined by the broth microdilution method in accordance with the Clinical and Laboratory Standards Institute (CLSI) guidelines. In brief, organism suspensions were adjusted to a final inoculum between 3×10^5 and 7×10^5 colony-forming units (CFU)/mL. Drug dilutions and inocula were made in sterile, cation adjusted Mueller-Hinton Broth (Beckton Dickinson). In wells, an inoculum volume of 100 μL was mixed to 2 μL of DMSO with 2-fold serial dilutions of drug. All inoculated microdilution trays were incubated in ambient air at 35° C. for 18-24 h. Following incubation, the lowest concentration of the drug that prevented visible growth (OD600 nm<0.05) was recorded as the MIC. Performance of the assay was monitored by the use of laboratory quality -control strains and compounds with defined MIC spectrum, in accordance with CLSI guidelines.

E. coli ATCC25922 = settings: Escherichia coli
Protocol: as §1

K. pneumoniae ATCC13883 = settings: Klebsiella pneumoniae
Protocol: as §1

P. aeruginosa ATCC27853 = settings: Pseudomonas aeruginosa
Protocol: as §1

[1] = PAO1, broth microdilution, cation adjusted Mueller-Hinton Broth, 35° C., 18-24 h, read-out: P. aeruginosa PAO1 MIC
[2] = ATCC25922, broth microdilution, cation adjusted Mueller-Hinton Broth, 35° C., 18-24 h, read-out: E. coli ATCC25922 MIC
[3] = ATCC13883, broth microdilution, cation adjusted Mueller-Hinton Broth, 35° C., 18-24 h, read-out: K. pneumoniae ATCC13883 MIC
[4] = ATCC27853, broth microdilution, cation adjusted Mueller-Hinton Broth, 35° C., 18-24 h, read-out: P. aeruginosa ATCC27853 MIC
[5] = PAO1, read-out: P. aeruginosa PAO1 MIC
[6] = ATCC25922, read-out: E. coli ATCC25922 MIC
[7] = ATCC13883, read-out: K. pneumoniae ATCC13883 MIC
[8] = ATCC27853, read-out: P. aeruginosa ATCC27853 MIC

SMILES | MIC (P. aeruginosa PAO1; [1]) [µg/mL] | MIC (E. coli ATCC25922; [2]) [µg/mL] | MIC (K. pneumoniae ATCC13883; [3]) [µg/mL] | MIC (P. aeruginosa ATCC27853; [4]) [µg/mL] | MIC (P. aeruginosa PAO1; [5]) [µg/mL] | MIC (E. coli ATCC25922; [6]) [µg/mL] | MIC (K. pneumoniae ATCC13883; [7]) [µg/mL] | MIC (P. aeruginosa ATCC27853; [8]) [µg/mL]
C[C@H](O)c1nccn1[C@@H](C#Cc1ccc(-c2ccc(C3CCO3)cc2)cc1)CO (mixture of isomers) [Compound 106, (2S)-2-(2-((S)-1-hydroxyethyl)-1H-imidazol-1-yl)-4-(4′-(oxetan-2-yl)-[1,1′-biphenyl]-4-yl)but-3-yn-1-ol] | 2 (≈ 5.15 µM) | 0.25 (≈ 0.644 µM) | 0.5 (≈ 1.29 µM) | 4 (≈ 10.3 µM) |  |  |  | 
C[C@H](O)c1nccn1[C@@H](C#Cc1ccc(-c2ccc(O[C@H]3C[C@@H](NS(C)(=O)=O)C3)cc2)cc1)CO (racemic) [Compound 132, N-((rac-cis)-3-((4′-((S)-4-hydroxy-3-(2-((S)-1-hydroxyethyl)-1H-imidazol-1-yl)but-1-yn-1-yl)-[1,1′-biphenyl]-4-yl)oxy)cyclobutyl)methane-sulfonamide] | 4 (≈ 8.07 µM) | 2 (≈ 4.04 µM) | > 32 | 4 (≈ 8.07 µM) |  |  |  | 
C[C@H](O)c1nccn1[C@@H](C#Cc1ccc(-c2ccc(OC3CN(CC(F)(F)F)C3)cc2)cc1)CO [Compound 86, (S)-2-(2-((S)-1-hydroxyethyl)-1H-imidazol-1-yl)-4-(4′-((1-(2,2,2-trifluoroethyl)azetidin-3-yl)oxy)-[1,1′-biphenyl]-4-yl)but-3-yn-1-ol] |  |  |  |  | 4 (≈ 8.24 µM) | 1 (≈ 2.06 µM) | 2 (≈ 4.12 µM) | 16 (≈ 33 µM)
C[C@H](O)c1nccn1[C@@H](C#Cc1ccc(-c2ccc(CO[C@H]3COC[C@@H]3O)cc2F)cc1)CO (single isomer, unassigned) [Compound 50] | 2 (≈ 4.29 µM) | 0.5 (≈ 1.07 µM) | 2 (≈ 4.29 µM) | 4 (≈ 8.57 µM) |  |  |  | 
C[C@H](O)c1nccn1[C@@H](C#Cc1ccc(-c2ccc(O[C@H]3COC[C@@H]3O)cc2Cl)cc1)CO (single isomer, unassigned) [Compound 48] | 2 (≈ 4.26 µM) | 1 (≈ 2.13 µM) | 4 (≈ 8.53 µM) | 4 (≈ 8.53 µM) |  |  |  | 
C[C@H](O)c1nccn1[C@@H](C#Cc1ccc(-c2ccc(NC[C@@H]3COC[C@H]3O)cc2)cc1)CO (racemic) [Compound 69, (rac-trans)-4-(((4′-((S)-4-hydroxy-3-(2-((S)-1-hydroxyethyl)-1H-imidazol-1-yl)but-1-yn-1-yl)-[1,1′-biphenyl]-4-yl)amino)methyl)tetrahydrofuran-3-ol] | 1 (≈ 2.23 µM) | 1 (≈ 2.23 µM) | 2 (≈ 4.47 µM) | 2 (≈ 4.47 µM) |  |  |  | 
C[C@H](O)c1nccn1[C@@H](C#Cc1ccc(-c2ccc(O[C@@H]3C[C@H]3NCC#N)cc2)cc1)CO (racemic) [Compound 141, 2-(((rac-trans)-2-((4′-((S)-4-hydroxy-3-(2-((S)-1-hydroxyethyl)-1H-imidazol-1-yl)but-1-yn-1-yl)-[1,1′-biphenyl]-4-yl)oxy)cyclopropyl)amino) acetonitrile] |  |  |  |  | 2 (≈ 4.52 µM) | 1 (≈ 2.26 µM) | 1 (≈ 2.26 µM) | 8 (≈ 18.1 µM)
CC(=O)N1CC(Nc2ccc(-c3ccc(C#C[C@@H](CO)n4ccnc4[C@H](C)O)cc3)cc2)C1 (single isomer, unassigned) [Compound 76] | 4 (≈ 9 µM) | 2 (≈ 4.5 µM) | 16 (≈ 36 µM) | 4 (≈ 9 µM) |  |  |  | 
C[C@H](O)c1nccn1[C@@H](C#Cc1ccc(-c2ccc(C3COC3)cc2)cc1)CO [Compound 128, (S)-2-(2-((S)-1-hydroxyethyl)-1H-imidazol-1-yl)-4-(4′-(oxetan-3-yl)-[1,1′-biphenyl]-4-yl)but-3-yn-1-ol] | 2 (≈ 5.15 µM) | 0.25 (≈ 0.644 µM) | 1 (≈ 2.57 µM) | 4 (≈ 10.3 µM) |  |  |  | 
CNC(=O)CN1CC(Oc2ccc(-c3ccc(C#C[C@@H](CO)n4ccnc4[C@H](C)O)cc3)cc2)C1 (single isomer, unassigned) [Compound 100] | 2 (≈ 4.21 µM) | 1 (≈ 2.11 µM) | 2 (≈ 4.21 µM) | 2 (≈ 4.21 µM) |  |  |  | 
C[C@H](O)c1nccn1[C@@H](C#Cc1ccc(-c2ccc(O[C@H]3C[C@@H](C#N)C3)cc2)cc1)CO (racemic) [Compound 129, (rac-cis)-3-((4′-((S)-4-hydroxy-3-(2-((S)-1-hydroxyethyl)-1H-imidazol-1-yl)but-1-yn-1-yl)-[1,1′-biphenyl]-4-yl)oxy)cyclobutane-1-carbonitrile] | 2 (≈ 4.68 µM) | 0.5 (≈ 1.17 µM) | 1 (≈ 2.34 µM) | 4 (≈ 9.36 µM) |  |  |  | 
CC(=O)N1CC(c2ccc(-c3ccc(C#C[C@@H](CO)n4ccnc4[C@H](C)O)cc3)cc2)C1 [Compound 139, 1-(3-(4′-((S)-4-hydroxy-3-(2-((S)-1-hydroxyethyl)-1H-imidazol-1-yl)but-1-yn-1-yl)-[1,1′-biphenyl]-4-yl)azetidin-1-yl)ethan-1-one] | 1 (≈ 2.33 µM) | 0.5 (≈ 1.16 µM) | 1 (≈ 2.33 µM) | 4 (≈ 9.31 µM) |  |  |  | 
C[C@H](O)c1nccn1[C@@H](C#Cc1ccc(-c2ccc(OC3CC4(C3)CN(CC#N)C4)cc2)cc1)CO (single isomer, unassigned) [Compound 67] | 2 (≈ 4.14 µM) | 0.5 (≈ 1.04 µM) | 4 (≈ 8.29 µM) | 4 (≈ 8.29 µM) |  |  |  | 
C[C@H](O)c1nccn1[C@@H](C#Cc1ccc(-c2ccc(OC3CCN(CC#N)C3)cc2)cc1)CO (mixture of isomers) [Compound 104, 2-(3-((4′-((S)-4-hydroxy-3-(2-((S)-1-hydroxyethyl)-1H-imidazol-1-yl)but-1-yn-1-yl)-[1,1′-biphenyl]-4-yl)oxy)pyrrolidin-1-yl)acetonitrile] | 2 (≈ 4.38 µM) | 2 (≈ 4.38 µM) | 4 (≈ 8.76 µM) | 2 (≈ 4.38 µM) |  |  |  | 
C[C@H](O)c1nccn1[C@@H](C#Cc1ccc(-c2ccc(O[C@@H]3COC[C@H]3O)cc2F)cc1)CO (racemic) [Compound 1, (rac-trans)-4-((2-fluoro-4′-((S)-4-hydroxy-3-(2-((S)-1-hydroxyethyl)-1H-imidazol-1-yl)but-1-yn-1-yl)-[1,1′-biphenyl]-4-yl)oxy)tetrahydrofuran-3-ol] | 2 (≈ 4.42 µM) | 0.5 (≈ 1.11 µM) | 2 (≈ 4.42 µM) | 4 (≈ 8.84 µM) |  |  |  | 
C[C@H](O)c1nccn1[C@@H](C#Cc1ccc(-c2ccc(OC3CN(C(=O)CO)C3)cc2)cc1)CO [Compound 91, 2-hydroxy-1-(3-((4′-((S)-4-hydroxy-3-(2-((S)-1-hydroxyethyl)-1H-imidazol-1-yl)but-1-yn-1-yl)-[1,1′-biphenyl]-4-yl)oxy)azetidin-1-yl)ethan-1-one] |  |  |  |  | 2 (≈ 4.33 µM) | 2 (≈ 4.33 µM) | 4 (≈ 8.67 µM) | 4 (≈ 8.67 µM)
C[C@H](O)c1nccn1[C@@H](C#Cc1ccc(-c2ccc(OC3CN(CC#N)C3)cc2F)cc1)CO (single isomer, unassigned) [Compound 63] | 2 (≈ 4.34 µM) | 0.5 (≈ 1.09 µM) | 2 (≈ 4.34 µM) | 4 (≈ 8.69 µM) |  |  |  | 
C[C@H](O)c1nccn1[C@@H](C#Cc1ccc(-c2ccc(O[C@@H]3COC[C@H]3OC(F)(F)F)cc2)cc1)CO (racemic) [Compound 124, (S)-2-(2-((S)-1-hydroxyethyl)-1H-imidazol-1-yl)-4-(4′-(((rac-trans)-4-(trifluoromethoxy)-tetrahydrofuran-3-yl)oxy)-[1,1′-biphenyl]-4-yl)but-3-yn-1-ol] | 8 (≈ 15.9 µM) | 2 (≈ 3.98 µM) | 4 (≈ 7.96 µM) | > 32 |  |  |  | 
CO[C@H]1C[C@@H](c2ccc(-c3ccc(C#C[C@@H](CO)n4ccnc4[C@H](C)O)cc3)cc2)C1 (racemic) [Compound 118, (S)-2-(2-((S)-1-hydroxyethyl)-1H-imidazol-1-yl)-4-(4′-((rac-cis)-3-methoxycyclobutyl)-[1,1′-biphenyl]-4-yl)but-3-yn-1-ol] | 2 (≈ 4.8 µM) | 0.12 (≈ 0.288 µM) | 0.38 (≈ 0.912 µM) | 4 (≈ 9.6 µM) |  |  |  | 
CNC(=O)[C@H]1C[C@@H](Oc2ccc(-c3ccc(C#C[C@@H](CO)n4ccnc4[C@H](C)O)cc3)cc2)C1 (racemic) [Compound 137, (rac-cis)-3-((4′-((S)-4-hydroxy-3-(2-((S)-1-hydroxyethyl)-1H-imidazol-1-yl)but-1-yn-1-yl)-[1,1′-biphenyl]-4-yl)oxy)-N-methylcyclobutane-1-carboxamide] | 0.5 (≈ 1.09 µM) | 0.5 (≈ 1.09 µM) | 2 (≈ 4.35 µM) | 1 (≈ 2.18 µM) |  |  |  | 
